# Assay results reported in patent US20190314345A1, “CALCINEURIN INHIBITOR AND NON-STEROIDAL ANTI-INFLAMMATORY DRUG TO REDUCE RISK OF POST-IMAGING PANCREATITIS” (UNIVERSITY OF PITTSBURGH - OF THE COMMONWEALTH SYSTEM OF …, priority 2016, published 2019).
# Columns and labels:
# PEP model in mice = assay: Intra-ductal RC infusion PEP model in mice: histological severity, serum amylase; assay type: in vivo, mouse
# Excerpt: The procedure for retrograde infusion into the CBD and pancreatic duct has been described before^14. Briefly, Swiss Webster mice were anesthetized with isoflurane. A midline incision was made to reveal the abdominal cavity. The duodenum was flipped to reveal its distal side and held in place by ligatures. […] needle was inserted through the anti-mesenteric aspect of the duodenum to cannulate the CBD. A small bull dog clamp was applied to the distal CBD (near the duodenum) to prevent back flow of the infusate into the duodenal lumen and to hold the cannula in place. A larger bull dog clamp was applied to the proximal CBD (near the liver) to prevent infusion into the liver and thus to direct flow to the pancreatic duct. Total volumes of 50-100 μl of iohexol, iopamidol, or normal saline (NS) were infused at 10-20 μl per min for 5 min using a P33 perfusion pump (Harvard Apparatus, Holliston, Mass.). Upon completion of the infusion, the bull dog clamps were released. The exterior abdominal wound was closed using 7 mm wound clips, and a single injection of buprenorphine (0.075 mg/kg) was given immediately after the surgery. Mice recovered on a heating pad for 30 min after the procedure. They were given free access to food and water after the surgery. The pancreas, duodenum, and spleen were fixed at room temperature for 24 hr in 4% paraformaldehyde. Paraffin-embedded sections were stained with hematoxylin an eosin (HE) and graded using a 20× objective over 10 separate fields in a blinded fashion. Pancreas tissue was graded for edema, inflammatory infiltrate, and necrosis as described by Wildi et al.^67. Whole blood samples were centrifuged at 1500×g for 5 min at 4° C. Serum amylase was measured using a Phadebas kit (Amersham Pharmacia, Rochester N.Y.) as previously described^68.
# NF-κB = assay: NF-κB-luciferase activity assay in AR42J cells; assay type: cell-based; details: for effect on RC-induced NF-κB luciferase levels: U73122 5 μM, 2-APB 100 μM, BAPTA 64 μM
# Description: AR42J cells were differentiated towards an acinar phenotype by administering dexamethasone (100 nM) for 48-72 hr^17. AR42J cells were infected with Ad-NF-κB luciferase 16 h prior to stimulation using a previously described method^12. Following a wash with DMEM/F12 medium, acinar cells were evenly distributed in a 48-well plate and incubated for 30 min at 37° C. They were incubated with RC at varying concentrations and times. NF-κB-luciferase was measured using a commercially available luciferase assay (Promega, Madison, Wis.). Briefly, cells were spun at 1,000 rpm for 5 min, washed with PBS, and lysed using reporter lysis 5× buffer (Promega, catalog no. E397A). Samples were vortexed and spun at 12,000×g for 2 min. The supernatant was plated, and luminescence was measured using a Synergy H1 plate reader (BioTek, Winooski, Vt.) and normalized to […].
# primary acinar cells = assay: Cell necrosis assay (propidium iodide uptake) in primary acinar cells; assay type: cell-based, mouse; details: for effect on RC (12%)-induced acinar cell injury (PI uptake): 6 hr incubation, U73122 5 μM, 2-APB 100 μM, BAPTA 64 μM, IKK-2 20 μM, FK506 24 μM, CsA 16 μM
# Description: Acinar cells were incubated in a 48-well plate with 50 μg/ml of propidium iodide (PI) for 30 min prior to addition of RC. Fluorescence was measured at 536 nm excitation and 617 nm emission wavelengths over time a time course of up to 6 hr. Fluorescence was measured after cell lysis with 0.5% Triton-X 100 was used to normalize the results relative to total DNA.
# AR42J cells = assay: Ca2+ signals (Fluo-4AM) in AR42J cells; assay type: cell-based; details: U73122 5 μM, 2-APB 100 μM
# Description: FIG. 7A-7H. […] (A) Summation of whole cell tracings from AR42J cells loaded with Fluo-4AM and perifused with RC (iohexol; 10-25%). (B, D) Quantification of amplitude and area under the curve. (C) RC (25%)-induced acinar cell Ca^2+ signals were prevented by the PLC inhibitor U73122 (5 μM) and the IP3R inhibitor 2-APB (100 μM). (n=20-30 cells per condition). *, # P<0.05 relative to 10% RC or RC alone, respectively. AR42J cells were infected with Ad-NFAT-luciferase and stimulated with RC at (E) increasing concentrations. […] (n=3). *, #, P<0.05, relative to the control or RC alone, respectively.
# Acinar cells were loaded at room temperature with the high-affinity Ca^2+-sensing dye Fluo-4AM (Kd=300 nM; Invitrogen). Acinar cells were plated on acid-washed glass coverslips and then mounted on a perifusion chamber. Thereupon, they were stimulated at room temperature with varying concentrations of RC (17-50%) diluted in HEPES buffer. Carbachol (1 mM) was given at the end of each experiment to confirm that the cells were intact and could mobilize intracellular Ca^2+ stores. A Zeiss LSM710 laser scanning confocal microscope was used with a […], 1.4 numerical aperture objective. […] Fluorescence from individual acinar cells was recorded. Analysis of recordings was performed using ImageJ software (NIH, Bethesda, Md.), and mean fluorescence over time in each region was graphed.
# calcineurin [1] = assay: NFAT-luciferase activity assay in mouse primary acinar cells; assay type: cell-based
# Description: (§1) Acinar cells were infected with Ad-NFAT-luciferase following a previously described procedure^10, 15, 16. The construct includes a luciferase gene placed downstream of an IL-4 promoter which contains nine tandem NFAT binding sites^10. Acinar cells were incubated with the NFAT-driven luciferase adenovirus for 1.5 hr prior to stimulation. All of the stated inhibitors were added for 30 min prior to stimulation with RC. NFAT-luciferase was measured using the luciferase assay system. Briefly, cells were spun at 1,000 rpm for 5 min, washed with PBS, and lysed using reporter lysis 5× buffer (Promega #E397A, Madison, Wis.). Samples were vortexed and spun at 12,000 g for 2 min. Supernatant was plated, and luminescence was measured using a Synergy H1 plate reader (BioTek, Winooski, Vt.) and normalized to total protein.
# calcineurin [2] = assay: NFAT-luciferase activity assay in AR42J cells; assay type: cell-based; details: for effect on RC (6%)-induced NFAT-luciferase activity: pretreatment, FK506 24 μM, CsA 16 μM, U73122 5 μM, 2-APB 100 μM, BAPTA 64 μM
# Description: as §1
# pancreatic NF-κB = assay: Imaging pancreatic NF-κB bioluminescence in vivo; design: species or system mouse; details: 4 hr after surgery, region of the pancreas
# Description: An AAV6-NF-κB-luciferase reporter was constructed, expanded in HEK293 cells, and purified as previously described^18-20, 39. A volume of 100 μl of virus (10^12 GCP/ml) was infused into the pancreaticobiliary duct at a rate of 10 μl/min using the same technique of RC infusion described above and recently published^21, 39. After a 5-week recovery from the surgery, mice underwent PEP induction with or without FK506 treatment. At varying time points after the surgery, ranging from 2 to 36 hr, bioluminescence signals were obtained by first giving a subcutaneous injection of luciferin (150 μg/g body weight) in the scruff of the neck 15 min before the start of imaging. The mice were briefly anesthetized with isoflurane and placed in the supine position in a bioluminescent imaging chamber (IVIS spectrum imager; Perkin Elmer, Waltham, Mass.) for 3-10 min. Average pixel intensity was measured from a pancreatic region of interest (in the upper abdomen). Raw time points from each mouse were normalized to its individual baseline intensity at time zero.
# pancreatic acinar cells = assay: ATP level measurements in acinar cells; assay type: cell-based, mouse; details: RC, concentration dependent
# Description: Following isolation, pancreatic acinar cells were cultured in DMEM/F12 Medium (0.5 ml/well of a 48-well plate) at 37° C. water bath and treated with RC±FK506. Cells were collected at indicated time points and lysed in 100 lysis buffer (100 mM Tris pH 7.75, 4 mM EDTA). ATP levels were measured from 20 μl aliquots of acinar cell lysates using the ENLITEN luciferase/luciferin reagent (Promega catalog no. FF2021).
# [3] = system: mouse pancreatic acinar cells; assay: Ca2+ signals (Fluo-4AM) in mouse pancreatic acinar cells; assay type: cell-based; details: 25% and 33% RC; peak-plateau Ca2+ waves
# Description: Acinar cells were loaded at room temperature with the high-affinity Ca^2+-sensing dye Fluo-4AM (Kd=300 nM; Invitrogen). Acinar cells were plated on acid-washed glass coverslips and then mounted on a perifusion chamber. Thereupon, they were stimulated at room temperature with varying concentrations of RC (17-50%) diluted in HEPES buffer. Carbachol (1 mM) was given at the end of each experiment to confirm that the cells were intact and could mobilize intracellular Ca^2+ stores. A Zeiss LSM710 laser scanning confocal microscope was used with a […], 1.4 numerical aperture objective. The dye was excited at 488 nm wavelength, and emission signals of >515 nm were collected every 2 sec. Fluorescence from individual acinar cells was recorded. Analysis of recordings was performed using ImageJ software (NIH, Bethesda, Md.), and mean fluorescence over time in each region was graphed.
# Groups of pancreatic acinar cells were isolated as previously described 26, 69 with minor modifications. Briefly, the pancreas was removed, and then minced for 5 min in buffer containing 20 mM HEPES (pH 7.4), 95 mM NaCl, 4.7 mM KCl, 0.6 mM MgCl2, 1.3 mM CaCl2=, 10 mM glucose, and 2 mM glutamine, plus 1% BSA, 1×MEM nonessential amino acids (GIBCO/BRL), 200 units/ml type-4 collagenase (Worthington, Freehold, N.J.), and 1 mg/ml soybean trypsin inhibitor. The tissue was incubated for 30 min at 37° C. with shaking at 90 rpm. […]
# calcineurin [4] = assay: NFAT-luciferase activity assay in human acinar cells; assay type: cell-based
# Description: as §1
# [5] = high-affinity Ca2+-sensing dye; cited from earlier work
# [6] = varying concentrations of iopamidol
structure (smiles),measurement,setting,value
COc1ccc2c(c1)c(CC(=O)O)c(C)n2C(=O)c1ccc(Cl)cc1 [indomethacin],effect of FK506 compared with therapeutic indomethacin on RC-induced pancreatitis,"PEP model in mice; FK506 1 mg/kg, indomethacin 7 mg/kg IP after RC infusion",as robust
NCCOB(c1ccccc1)c1ccccc1 [2-APB],effect on RC-induced NF-κB luciferase levels,NF-κB,reduced
same,effect on RC (12%)-induced acinar cell injury (PI uptake),primary acinar cells,prevented
same,effect on RC (25%)-induced acinar cell Ca2+ signals,AR42J cells,prevented
same,reduction of RC-induced luciferase rise,"calcineurin [1]; 2-APB 100 μM, P<0.05",47%
same,effect on RC (6%)-induced NFAT-luciferase activity,calcineurin [2],prevented
C[C@H](O)C(=O)Nc1c(I)c(C(=O)NC(CO)CO)c(I)c(C(=O)NC(CO)CO)c1I [iopamidol],induction of pancreatitis,"PEP model in mice; intra-ductal infusion, 24 hr",induces pancreatitis
same,NF-κB activation,NF-κB; [6],concentration-dependent
same,NFAT activation,calcineurin [2]; [6],concentration-dependent
OC[C@@H](O)[C@@H](O)[C@H](O)[C@H](O)CO [mannitol],NF-κB increase at equimolar concentrations,"NF-κB; osmolality control, equimolar to RC",failed to cause an increase
"CC(=O)N(CC(O)CO)c1c(I)c(C(=O)NCC(O)CO)c(I)c(C(=O)NCC(O)CO)c1I (stereo not drawn) [RC, iohexol]",severity of pancreatitis at pH 6 compared to pH 7,"PEP model in mice; RC buffered with 10 mM HEPES, pH clamped at 6",no increased severity
same,increase in histological severity above the intra-ductal NS sham control,"PEP model in mice; intra-ductal RC, doubled rate and volume, 24 hr after procedure",59%
same,serum amylase increase,"PEP model in mice; intra-ductal RC, 6 hr post-procedure",at least 50%
same,peak in NF-κB luciferase compared to NS sham,pancreatic NF-κB,13 fold
same,increase in NF-κB luciferase above baseline,"NF-κB; 25% RC for 10 min, followed by washout",5 fold
same,increase in NF-κB luciferase above baseline,"NF-κB; 25% RC for 60 min, P<0.05",58 fold
same,increase in NF-κB luciferase above baseline,"NF-κB; 25% RC for 90 min, P<0.05",59 fold
same,increase in NF-κB luciferase above baseline,"NF-κB; 25% RC for 120 min, P<0.05",112 fold
same,rise in NF-κB,NF-κB; at 350 mOsm/L,300 fold
same,ATP levels,pancreatic acinar cells,depletion
same,Ca2+ signal amplitude above baseline,[3],400%
same,PI uptake,primary acinar cells; RC exposure for 6 hr,concentration-dependent increase
COc1ccc2c(c1)CC[C@@H]1[C@@H]2CC[C@]2(C)[C@@H](NCCCCCCN3C(=O)C=CC3=O)CC[C@@H]12 [U73122],effect on RC-induced NF-κB luciferase levels,NF-κB,reduced
same,effect on RC (12%)-induced acinar cell injury (PI uptake),primary acinar cells,prevented
same,effect on RC (25%)-induced acinar cell Ca2+ signals,AR42J cells,prevented
same,effect on RC (6%)-induced NFAT-luciferase activity,calcineurin [2],prevented
CCCCCCCCCCC[C@@H](C[C@@H]1OC(=O)[C@H]1CCCCCC)OC(=O)[C@H](CC(C)C)NC=O [Orlistat],effect of pretreatment on RC-induced NF-κB activation,"NF-κB; NAC 2-12 mM, Orlistat 50-100 μM, RC 16%",did not significantly reduce
CC(=O)OCOC(=O)CN(CC(=O)OCOC(C)=O)c1ccccc1OCCOc1ccccc1N(CC(=O)OCOC(C)=O)CC(=O)OCOC(C)=O [BAPTA-AM],effect on RC (25%)-induced NFAT-luciferase activity,calcineurin [4],prevented
same,effect on RC-induced NF-κB luciferase levels,NF-κB,reduced
same,effect on RC (12%)-induced acinar cell injury (PI uptake),primary acinar cells,prevented
same,effect on RC-induced rise in NFAT-luciferase,"calcineurin [1]; 30 min pre-treatment, FK506 24 μM, CsA 16 μM, BAPTA-AM 64 μM",completely reduced
same,effect on RC (6%)-induced NFAT-luciferase activity,calcineurin [2],prevented
CC(=O)OCOC(=O)CN(CC(=O)OCOC(C)=O)c1ccc(C)cc1OCCOc1cc(-c2c3cc(F)c(=O)cc-3oc3cc(OCOC(C)=O)c(F)cc23)ccc1N(CC(=O)OCOC(C)=O)CC(=O)OCOC(C)=O [Fluo-4AM],Kd,[5],300 nM
